This note sets out measurements from publication PMC11677243, “Target protein identification in live cells and organisms with a non-diffusive proximity tagging system” (eLife, 2024).

Experiment [1] addresses T1, VPS37C (Homo sapiens, UniProt A5D8V6).
T1 construct: expressed in transfected cells; host or cells: HEK293T
The experiment can be described thus: MST binding to Cy5-labeled VPS37C. Conditions: purified recombinant VPS37C; n = 2, mean ± s.d. The procedure:
(§1) SEPHS2-2xV5, VPS37C-2xV5, VPS29, TRAPPC3, TOM1, and TOM1L2 were labeled using Cy5-NHS ester (A100932, Sangon Biotech, China). Briefly, each target protein was diluted to 10 µM in PBS and underwent buffer exchange with PBS using a Zeba spin desalting column (89882, Thermo Scientific, USA) to remove Tris. The labeling reaction consisted of 80 µl of 10 µM target protein, 10 µl of 1 M NaHCO3 pH 8.3, and 10 µl of 1 mM Cy5-NHS ester in DMSO, and was incubated at 4°C overnight. The next day, unlabeled dyes were removed using Zeba spin desalting columns, and labeling efficiency was assessed by measuring the concentration of Cy5 with a UV-Vis spectrophotometer (SMA5000, Merinton, China). […] Cy5-labeled SEPHS2-2xV5 (5 nM), VPS37C-2xV5 (5 nM), VPS29 (10 nM), TRAPPC3 (10 nM), TOM1 (10 nM), or TOM1L2 (10 nM) was mixed with the corresponding diluted compound in a total volume of 20 µl, and then loaded into Monolith premium capillaries (MO-K025, NanoTemper, Germany). Binding affinity analysis was performed using a NanoTemper Monolith NT.115 instrument (NanoTemper). Kd values were obtained using MO.Affinity Analysis 2.3.0 software (NanoTemper).

For a further experiment, the target named is T2, VPS29 (Homo sapiens, UniProt Q9UBQ0).
T2 construct: 6xHis (pET28a, Ni column purification); made in house; host or cells: E. coli BL21(DE3)
The experiment in a line: MST binding to Cy5-labeled VPS29. The procedure:
as §1

The next experiment concerns the target T3, TOM1 (Homo sapiens, UniProt O60784).
T3 construct: 6xHis (pET28a, Ni column purification); made in house; host or cells: E. coli BL21(DE3)
The experiment in a line: MST binding to Cy5-labeled TOM1. Conditions: n = 2. As for the experimental part: as §1

In the next experiment the target is T4, TOM1L2 (Homo sapiens, UniProt Q6ZVM7).
T4 construct: 6xHis (pET28a, Ni column purification); made in house; host or cells: E. coli BL21(DE3)
T4 sequence (Q6ZVM7 1-507): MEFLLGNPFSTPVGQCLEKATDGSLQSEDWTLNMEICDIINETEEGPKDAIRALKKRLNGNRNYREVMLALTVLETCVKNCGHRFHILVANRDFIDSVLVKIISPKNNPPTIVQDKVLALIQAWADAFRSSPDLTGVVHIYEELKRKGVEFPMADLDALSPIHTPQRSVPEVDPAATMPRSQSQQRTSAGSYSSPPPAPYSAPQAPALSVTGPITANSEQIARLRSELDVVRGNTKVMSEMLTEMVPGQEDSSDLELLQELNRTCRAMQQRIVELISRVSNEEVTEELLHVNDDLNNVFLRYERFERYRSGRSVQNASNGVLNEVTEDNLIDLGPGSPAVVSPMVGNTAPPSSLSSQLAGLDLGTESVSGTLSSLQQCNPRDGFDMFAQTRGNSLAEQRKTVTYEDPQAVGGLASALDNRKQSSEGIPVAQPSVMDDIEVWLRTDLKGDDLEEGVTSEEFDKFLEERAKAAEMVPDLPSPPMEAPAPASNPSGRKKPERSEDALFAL
The experiment in a line: MST binding to Cy5-labeled TOM1L2. Particulars: n = 2. The procedure: as §1

In the next experiment the target is T5, TRAPPC3 (Homo sapiens, UniProt O43617).
T5 construct: 6xHis (pET28a, Ni column purification); made in house; host or cells: E. coli BL21(DE3)
T5 sequence (O43617 whole entry): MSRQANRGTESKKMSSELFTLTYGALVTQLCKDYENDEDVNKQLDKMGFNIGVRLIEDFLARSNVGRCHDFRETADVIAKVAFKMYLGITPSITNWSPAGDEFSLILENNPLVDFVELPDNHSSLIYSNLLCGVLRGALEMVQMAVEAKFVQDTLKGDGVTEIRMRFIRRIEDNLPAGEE
The experiment in a line: MST binding to Cy5-labeled TRAPPC3. Conditions: n = 2. The procedure:
as §1

The target of a further experiment is T6, VPS37C-V5 (Homo sapiens, UniProt A5D8V6).
T6 construct: expressed in transfected cells; host or cells: HEK293T
T6 sequence (A5D8V6 whole entry): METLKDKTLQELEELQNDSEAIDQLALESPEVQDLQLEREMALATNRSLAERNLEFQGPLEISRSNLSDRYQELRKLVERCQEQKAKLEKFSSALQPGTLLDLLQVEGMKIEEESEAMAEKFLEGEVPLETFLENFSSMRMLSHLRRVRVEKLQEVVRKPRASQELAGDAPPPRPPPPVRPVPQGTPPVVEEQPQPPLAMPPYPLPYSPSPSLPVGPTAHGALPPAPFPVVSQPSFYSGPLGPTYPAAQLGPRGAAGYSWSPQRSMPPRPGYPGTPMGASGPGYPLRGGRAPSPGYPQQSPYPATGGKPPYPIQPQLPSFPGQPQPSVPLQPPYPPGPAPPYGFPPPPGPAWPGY
The experiment in a line: POST-IT labeling and streptavidin pulldown of VPS37C-V5 in HEK293T cells. Particulars: 200 nM DC661-H1 with 2 µM competitor. It is filed as cell-based.

For experiment [2], the target named is T1, VPS37C. The experiment can be described thus: Cellular thermal shift assay (CETSA) on cell lysates. The format is binding. Conditions: 20 µM compound, 47°C to 59°C. The procedure:
[…] cells were cultured on a 100 mm dish and transfected with 10 µg of VPS37C-2xV5 plasmid. Forty-eight hours later, the cells were washed twice with ice-cold PBS, harvested in 1 ml of PBS buffer supplemented with 0.4% NP-40 and 0.5×protease inhibitor cocktail, incubated for 15 min with gently rotation at room temperature, and centrifuged at maximum speed for 15 min at 4°C. The supernatant was transferred to a new 1.5 ml microtube, and protein concentration was determined by a BCA assay. Cell lysates were diluted to a concentration of 2 mg/ml and divided into two groups. The drug group was treated with 20 µM of DC660 or HCQ, while the control group received the same amount of DMSO. After a 20 min incubation at room temperature, cell lysates were gently mixed and aliquoted into PCR tubes with 40 µl each, then subjected to heat treatment for 4 min, ranging from 47°C to 59°C in 2°C increments, and cooled to room temperature on a T100 thermal cycler (Bio-Rad, USA). Subsequently, cell lysates were transferred to 1.5 ml microtubes and centrifuged at maximum speed for 20 min at 4°C to precipitate unstable insoluble proteins. The supernatant was transferred to a new 1.5 ml microtube, and 10 µl of 5×SDS sample buffer was added to each tube. Samples were boiled at 95°C for 5 min and processed for western blot analysis.

A further experiment deals with T7, Myc-Halo^8KR-PafA (Rhodococcus rhodochrous, UniProt P0A3G2, A155T/A167V/A172T/A224E/C128F/C176G/D78G/E160R/E257R/H272N/K117R/K124R/K175M/K195N/K236R/K263R/K71R/K74R/L47V/L88M/N227D/P291S/S58T/T264A/Y273L/Y87F).
T7 construct: 6xHis (Ni column purification); made in house; host or cells: E. coli BL21(DE3)
T7 sequence (P0A3G2 other isoform, or with tags, fused parts or gaps with the stated changes): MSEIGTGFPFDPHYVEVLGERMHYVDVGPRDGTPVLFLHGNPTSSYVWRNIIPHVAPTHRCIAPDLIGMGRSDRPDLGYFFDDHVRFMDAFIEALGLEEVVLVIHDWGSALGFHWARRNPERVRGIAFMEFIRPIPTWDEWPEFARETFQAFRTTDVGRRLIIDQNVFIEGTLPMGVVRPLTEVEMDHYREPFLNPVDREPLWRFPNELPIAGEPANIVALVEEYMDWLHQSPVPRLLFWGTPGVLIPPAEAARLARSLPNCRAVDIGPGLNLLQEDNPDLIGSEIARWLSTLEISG
The experiment can be described thus: Halo-biotin competition assay (western blot, streptavidin-HRP). The format is binding, Corynebacterium glutamicum. Particulars: 2 μM DH1 preincubation, 1 μM Myc-Halo^8KR-PafA, then 5 μM Halo-Biotin. The procedure:
Figure 2. Optimized Halo-PafA and Pup substrates efficiently promote pupylation in vitro in a proximity-dependent manner. […] (B) Comparison of proximity-tagging by different Halo-PafA derivatives on in vitro pupylation. (C) Comparison of different Pup substrates on in vitro pupylation with 500 nM DH1. […] (B–D) All reactions were conducted with 1 μM of a Halo-PafA derivative, 10 μM of one of the different Pup substrates, and 0.5 μM of a purified short SRC with a 2xV5 tag, SRC(247-536)-2xV5, at 37°C for 30 min. Pupylation levels of SRC were assessed by immunoblot (IB) using an anti-V5 antibody. Figure 2—source data 1. […] Figure 2—source data 2. […] Figure 2—figure supplement 1. Synthesis of dasatinib-Halo derivative 1 (DH1). Reagents and conditions: (a) HATU, DIPEA, DMF, RT, 2 hr; (b) NaOH, THF, H2O, RT, 2 hr. RT, room temperature. [drawing 4] Figure 2—figure supplement 2. Representative spectra of DH1. (A) ^1H NMR; (B) HRMS. [drawing 5] Figure 2—figure supplement 3. […] (A) Fluorescence polarization (FP) assay using 2 nM of HaloTag Alexa Fluor-488 (Halo-AF488) at 25°C. n = 2. […] (B) Western blot analysis for the Halo-Biotin competition assay. […] Levels of bound Halo-Biotin were assessed by streptavidin-HRP. (C) Quantitative analysis of western blot results shown in (B). n = 5. […] Pupylation levels of SRC were assessed by immunoblot (IB) using an anti-V5 antibody. […]

The test system of the next experiment is SRC. The experiment can be described thus: In cellulo pupylation and pulldown assay of SRC in HEK293T cells. Conditions: 500 nM DH1. The format is cell-based, Homo sapiens.
The next experiment deals with SRC(247-536)-2xV5 (Homo sapiens, UniProt P12931). Conditions: 500 nM DH1, N-terminal Halo^8KR, 37°C, 30 min.
SRC(247-536)-2xV5, sequence (P12931 247-536): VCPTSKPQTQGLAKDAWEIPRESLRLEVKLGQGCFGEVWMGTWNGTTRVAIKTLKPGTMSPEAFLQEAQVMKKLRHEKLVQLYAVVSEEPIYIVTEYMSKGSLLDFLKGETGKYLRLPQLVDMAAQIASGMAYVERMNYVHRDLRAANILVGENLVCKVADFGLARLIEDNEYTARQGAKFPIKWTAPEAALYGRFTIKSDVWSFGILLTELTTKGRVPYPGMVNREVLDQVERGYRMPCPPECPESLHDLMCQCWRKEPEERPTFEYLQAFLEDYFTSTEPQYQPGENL
Experiment [3] deals with LC3-II. The experiment can be described thus: Autophagy inhibition by LC3-II western blot in HEK293T cells. It is filed as cell-based, Homo sapiens. Conditions: 12 hr. The text has this:
(§2) Cells transfected and/or treated with different compounds were harvested at the end of treatment.

The subject of experiment [4] is LC3-II. The experiment can be described thus: Autophagy inhibition by LC3-II western blot in A375 cells. It is filed as cell-based, Homo sapiens. Particulars: 12 hr.
From the text: as §2

The target of a further experiment is HA-FKBP-EGFP (Homo sapiens, UniProt P42345+P62942). The experiment can be described thus: Rapamycin-induced pupylation of FKBP-EGFP by FRB-mKate2-PafA in HEK293T cells. It is filed as cell-based. Conditions: 100 nM rapamycin.
HA-FKBP-EGFP, sequence (P62942 whole entry): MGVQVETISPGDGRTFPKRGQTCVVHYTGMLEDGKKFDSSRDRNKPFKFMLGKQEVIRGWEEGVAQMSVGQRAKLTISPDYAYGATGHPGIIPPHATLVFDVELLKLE
HA-FKBP-EGFP, sequence (P42345 2012-2144 limits assumed): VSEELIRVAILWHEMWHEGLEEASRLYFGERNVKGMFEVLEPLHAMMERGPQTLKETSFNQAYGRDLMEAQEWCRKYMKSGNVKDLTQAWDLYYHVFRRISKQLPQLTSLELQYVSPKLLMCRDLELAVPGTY

T1 sequence (A5D8V6 whole entry): as the sequence (A5D8V6 whole entry) above
T3 sequence (O60784 whole entry): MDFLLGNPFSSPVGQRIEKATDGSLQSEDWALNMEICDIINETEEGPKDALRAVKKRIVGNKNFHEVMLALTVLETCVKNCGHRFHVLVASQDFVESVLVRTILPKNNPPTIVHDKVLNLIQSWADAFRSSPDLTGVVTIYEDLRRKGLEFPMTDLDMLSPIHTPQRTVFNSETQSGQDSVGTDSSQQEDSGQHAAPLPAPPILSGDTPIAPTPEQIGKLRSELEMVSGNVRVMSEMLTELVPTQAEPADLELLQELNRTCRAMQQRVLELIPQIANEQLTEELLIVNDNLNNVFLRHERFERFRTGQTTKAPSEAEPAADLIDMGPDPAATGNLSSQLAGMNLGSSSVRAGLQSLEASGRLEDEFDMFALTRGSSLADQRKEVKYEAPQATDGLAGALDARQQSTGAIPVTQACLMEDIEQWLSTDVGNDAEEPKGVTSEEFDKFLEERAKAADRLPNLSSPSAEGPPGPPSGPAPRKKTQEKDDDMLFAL

For `CCN(CCO)CCCC(C)Nc1ccnc2cc(Cl)ccc12` (centres unmarked) [HCQ, hydroxychloroquine, reference compound], the Kd at VPS37C [1] turned out to be 16.9 ± 8.7 µM. The “binding to VPS29 (MST dose-response)” value on VPS29 (n = 2) was “no binding”. Also, at TOM1, the “binding to TOM1 (MST)” value was “did not show detectable binding”. The “binding to TOM1L2 (MST)” value at TOM1L2 is “did not show detectable binding”. On TRAPPC3, the “binding to TRAPPC3 (MST)” value is reported as “did not show detectable binding”. Moreover, the “VPS37C binding to DC661-H1 under competition” value at VPS37C-V5 is reported as “almost completely abolished”. For the same molecule, at VPS37C [2], the “thermal stability of VPS37C versus DMSO (CETSA)” value is “more stable”.
On to `Cc1nc(Nc2ncc(C(=O)Nc3c(C)cccc3Cl)s2)cc(N2CCN(CCNC(=O)CCCCC(=O)NCCOCCOCCOCCOCCCCCCCl)CC2)n1` [DH1, N1-(2-(4-(6-((5-((2-Chloro-6-methylphenyl)carbamoyl)thiazol-2-yl)amino)-2-methylpyrimidin-4-yl)piperazin-1-yl)ethyl)-N6-(18-chloro-3,6,9,12-tetraoxaoctadecyl)adipamide], for which, at Myc-Halo^8KR-PafA, the “time for efficient linking to Halo^8KR-PafA” value was at most 15 min. The “POST-IT labeling of exogenous and endogenous SRC” value in the experiment with SRC is “significant labeling activity”. Further, the “pupylation of purified recombinant short SRC by Halo^8KR-PafA” value on SRC(247-536)-2xV5 is reported as “robust pupylation”.
In the case of `Clc1ccc2c(NCCCCCCNCCCCCCNc3ccnc4cc(Cl)ccc34)ccnc2c1` [DC660, N^1-(7-Chloroquinolin-4-yl)-N^6-(6-((7-chloroquinolin-4-yl)amino)hexyl)hexane-1,6-diamine], the Kd at VPS37C [1] was 0.0215 ± 0.0098 µM; at VPS29 (n = 2, mean ± s.d.), 25 ± 11.7 µM. In addition, at TOM1, the “binding to TOM1 (MST)” value is recorded as “appeared to bind well”. The “binding to TOM1L2 (MST)” value at TOM1L2 was “appeared to bind well”. Moreover, the “binding to TRAPPC3 (MST)” value at TRAPPC3 is recorded as “appeared to bind well”. For the same molecule, the “levels of LC3-II band (autophagy inhibition)” value in the experiment with LC3-II [3] and in the experiment with LC3-II [4] was “robust LC3-II bands” each time. At VPS37C-V5, the “VPS37C binding to DC661-H1 under competition” value is “almost completely abolished”. On VPS37C [2], the “thermal stability of VPS37C versus DMSO (CETSA)” value is listed as “more stable”.
For `CO[C@H]1C[C@@H]2CC[C@@H](C)[C@@](O)(O2)C(=O)C(=O)N2CCCC[C@H]2C(=O)O[C@H]([C@H](C)C[C@@H]2CC[C@@H](O)[C@H](OC)C2)CC(=O)[C@H](C)/C=C(\C)[C@@H](O)[C@@H](OC)C(=O)[C@H](C)C[C@H](C)/C=C/C=C/C=C/1C` [rapamycin], the “pupylation of FKBP-EGFP by PafA fused with FRB” value at HA-FKBP-EGFP is recorded as “robust pupylation”.
